Measured values reported in the NIST ThermoML archive (doi:10.1016/j.jct.2016.02.017).

Test: Boiling temperature at pressure P
Conditions: Liquid, Ebulliometric method (Recirculating still)

O [water]
Conditions | Boiling temperature at pressure P [°C]
12.1 kPa | 50.7
25.8 kPa | 67.2
41.8 kPa | 78.7
59.7 kPa | 85.5
74.1 kPa | 91.2
91.8 kPa | 97.7
